Converted amounts (≈) assume the structure as drawn.
Key:
[1] = Terminal half life in Wistar rat at 10 mg/kg, IM administered as H3-lableled compound by scintillation counting method; format: ADME, organism-based; settings: in vivo
[2] = AUC in Wistar rat at 10 mg/kg, IM administered as H3-lableled compound by scintillation counting method; format: ADME, organism-based; design: dose 10 mg/kg, route im; settings: in vivo
[3] = Antifertility activity against human Spermatozoa assessed as decrease in sperm motility for 120 mins by hematocytometer analysis; format: functional, cell-based
[4] = Half life in human plasma; format: ADME, cell-free

In the case of `Cc1nnc(C(C)C)n1[C@H]1C[C@H]2CC[C@@H](C1)N2CC[C@H](NC(=O)C1CCC(F)(F)CC1)c1ccccc1` [MARAVIROC], the “beta t1/2” value [1] is reported as 53.23 h and the AUC [2] is reported as 567.17 ng·h/mL.

`CCN(Cc1ccccc1)C(=O)C1CCN(CCCN(C(=O)C2CCN(C(C)=O)CC2)c2ccc(C)c(Cl)c2)CC1` gave an EC50 [3] of 1500 µg/mL (≈ 2580 µM).

`CCCCOCCOc1ccc(-c2ccc3c(c2)/C=C(/C(=O)Nc2ccc([S@@+]([O-])Cc4cncn4CCC)cc2)CCCN3CC(C)C)cc1` [CENICRIVIROC] gave a half-life [4] of 30 h.

From ChEMBL document CHEMBL5230124, “Advances of CCR5 antagonists: From small molecules to macromolecules” (Eur J Med Chem, 2020)
